Assay results: PMC6830309, “Characterizing CDK8/19 Inhibitors through a NFκB-Dependent Cell-Based Assay” (Cells, 2019)
Where two headings read alike, the source gives them in different places.

How the values were obtained:
[1] = system: TNFα-induced NFκB reporter activity in CDK8/19 dKO 293 cells; assay: NFκB-dependent luciferase reporter cell-based assay in CDK8/19 dKO 293 cells; set-up: species or system human; details: for IC50: Homo sapiens, read-out: NFkB activity Assay IC50; for effect on reporter induction in dKO cells: 293-dKO-NFκB-Luc cells
Experimental: (§1) The lentiviral construct pHAGE-NFkB-TA-LUC-UBC-dTomato was generated by Darrell Kotton […] Parental WT 293 cells or CDK8/19 dKO 293 cells were transduced with the lentivirus and dTomato-positive cells were sorted out using FACS Aria III. Single-cell clones were expanded and tested for luciferase reporter activities under TNFα- and/or senexin B-treated and untreated conditions with Bright-Glo Luciferase Assay System (Promega, Madison, WI, USA).
(§2) On day 1, cells were seeded in polyethyleneimine-coated 96-well plates at the density of 5 × 10^4 cells per well. […] Chemiluminescence intensity of each well was measured with ChemiDoc Touch™ (Bio-Rad) and quantified using ImageLab software (Bio-Rad). The raw data were then further processed with GraphPad Prism 7.0 (GraphPad Software, San Diego, CA, USA) for curve-fitting and IC50 calculation.

[2] = system: TNFα-induced NFκB reporter activity in WT 293 cells (CDK8/19 inhibition); assay: NFκB-dependent luciferase reporter cell-based assay in WT 293 cells; set-up: species or system human; details: for extent of inhibition of NFκB-dependent promoter activation: WT cells
Experimental: as §1, §2

[3] = system: alkaline phosphatase (ALPase) activity in ST2 cells; set-up: method as in PMID 23453217; details: concentration enhancing ALPase activity to 200% of the control; cited from earlier work
CXCL1 mRNA expression = assay: QPCR of TNFα-induced CXCL1 mRNA in 293 cells and CDK8/19 knockout derivatives; type: cell-based, human; details: dKO 293 cells; 1 μM senexin B
Experimental: (§3) Cells were seeded in 12-well plates at density of 3 × 10^5 cells per well in regular culture media 24 h before treatment. Cells were first pre-treated with 1 μM senexin B or solvent control DMSO (0.1%) for 1 h and then treated with or without 10 ng/mL TNF-α for 2 h. Total RNA was extracted using RNAeasy Mini Kit (Qiagen, Germantown, MD, USA) and 1 µg of total RNA was used to generate cDNA using iScript cDNA synthesis kit (Bio-Rad). Gene expression was quantified using iTaq Universal SYBR green super mix on the CFX384 Real time system (Bio-Rad). The primers used for real-time PCR were: CXCL1-F, […]; CXCL1-R, […]; IL8-F, […]; IL8-R, […]; RPL13A-F, […] and RPL13A-R, […].

IL8 mRNA expression = assay: QPCR of TNFα-induced IL8 mRNA in 293 cells and CDK8/19 knockout derivatives; type: cell-based, human; details: dKO 293 cells; 1 μM senexin B
Experimental: as §3

[4] = HEK293, 293-dKO-NFKB-LUC#2, 10 ng/mL TNFα 3 h
[5] = Homo sapiens, HEK293, 3 h, 293-WT-NFKB-LUC#8, 10 ng/mL TNFα 3 h, read-out: NFkB activity Assay IC50
[6] = 293-WT-NFKB-LUC#8, 10 ng/mL TNFα 3 h, read-out: NFkB activity Assay IC50

Structure (SMILES)	IC50 [1, 4]	extent of inhibition of NFκB-dependent promoter activation ([1]; dKO cells, 10 ng/mL TNFα 3 h)	IC50 [2, 5]	extent of inhibition of NFκB-dependent promoter activation ([2]; 10 ng/mL TNFα 3 h)	ALP activity Assay EC200 [3]	other results
CN(C)C/C=C/C(=O)Nc1ccc(C(=O)Nc2cccc(Nc3ncc(Cl)c(-c4c[nH]c5ccccc45)n3)c2)cc1 [THZ1]	352 nM	completely inhibited	220 nM	completely inhibited		
CC(C)C[C@H](NC(=O)[C@H](Cc1ccccc1)NC(=O)c1cnccn1)B(O)O [Bortezomib, bortezomib]	173 nM		311 nM			
CC(=O)c1c(C)c2cnc(Nc3ccc(N4CCNCC4)cn3)nc2n(C2CCCC2)c1=O [Palbociclib, palbociclib]	> 2000 nM	only weak inhibitory effects at high concentrations	> 2000 nM	only weak inhibitory effects at high concentrations		
Cc1ccc(S(=O)(=O)N[C@@H](Cc2ccccc2)C(=O)CCl)cc1 [TPCK, tosyl-L-phenylalanyl-chloromethane ketone]	12000 nM	complete suppression	13000 nM	complete suppression		
NC(=O)c1sc2nccc(N3CCCN(c4ccccc4)CC3)c2c1N [15k]						effect on reporter induction in dKO cells ([1]; 10 ng/mL TNFα 3 h): none of them showed any activity
Cc1ccc(N2CCCN(c3ccnc4sc(C(N)=O)c(N)c34)CC2)cc1 [15n]			43.1 nM		115.4 nM	
COc1ccc(N2CCCN(c3ccnc4sc(C(N)=O)c(N)c34)CC2)cc1 [15q]			37.8 nM		88.1 nM	
CN1CCN(C(=O)c2ccc3cc(CCNc4ncnc5ccc(C#N)cc45)ccc3c2)CC1 [senexin B]	> 1000 nM		114 nM			inhibition of TNFα-induced luciferase induction ([1]; dKO cells, 1 μM senexin B, 10 ng/mL TNFα): not in dKO cells; inhibitory effect on TNFα induction of CXCL1 (CXCL1 mRNA expression): completely abolished; inhibitory effect on TNFα induction of IL8 (IL8 mRNA expression): completely abolished; IC50 ([2]; Homo sapiens, HEK293, 3 h, clone WT-#1, 10 ng/mL TNFα 3 h, read-out: IC50 for inhibition of TNFα-induced luciferase expression): 95 nM; IC50 ([2]; Homo sapiens, HEK293, 3 h, clone WT-#2, 10 ng/mL TNFα 3 h, read-out: IC50 for inhibition of TNFα-induced luciferase expression): 135 nM; IC50 ([2]; Homo sapiens, HEK293, 3 h, clone WT-#9, 10 ng/mL TNFα 3 h, read-out: IC50 for inhibition of TNFα-induced luciferase expression): 187 nM; inhibition of TNFα-induced luciferase expression ([2]; all the WT clones, 1 μM senexin B): 70–80%
CNC(=O)c1ccc(N2CCCN(c3ccnc4sc(C(N)=O)c(N)c34)CC2)cc1 [15v]			23.1 nM		54.2 nM	
CN1CC[C@H](c2c(O)cc(O)c3c(=O)cc(-c4ccccc4Cl)oc23)[C@H](O)C1 [Flavopiridol]	26 nM	completely inhibited	34 nM	completely inhibited		
CN(C)C(=O)Cc1ccc(N2CCCN(c3ccnc4sc(C(N)=O)c(N)c34)CC2)cc1 [15w]	> 1000 nM		4.1 nM		6.6 nM	effect on reporter induction in dKO cells ([1]; 10 ng/mL TNFα 3 h): none of them showed any activity; IC50 [2, 6]: 4 nM
CN(C)C(=O)c1ccc(N2CCCN(c3ccnc4sc(C(N)=O)c(N)c34)CC2)cc1 [15u]	> 1000 nM		10.3 nM		31.9 nM	effect on reporter induction in dKO cells ([1]; 10 ng/mL TNFα 3 h): none of them showed any activity; IC50 [2, 6]: 10 nM
CCc1cnn2c(NCc3ccc[n+]([O-])c3)cc(N3CCCC[C@H]3CCO)nc12 [Dinaciclib]		completely inhibited		completely inhibited		
CN(C)C1CC23CCC4(O2)C(=CCC2(C)C(c5ccc6ccncc6c5)=CCC24)C=C3C(O)C1O (centres unmarked) [dCA, didehydro-cortistatin A]						effect on reporter induction in dKO cells ([1]; 10 ng/mL TNFα 3 h): no effect; IC50 ([1]; HEK293, 3 h): > 1000 nM; IC50 ([2]; Homo sapiens, HEK293, 3 h, read-out: NFkB activity Assay IC50): 1.3 nM; maximal (plateau) inhibition of TNFα-induced reporter induction ([2]; WT reporter cells, 10 ng/mL TNFα 3 h): ~ 80%
